Five compounds from the NIST ThermoML archive (doi:10.1021/je100508y) can be followed below.

Numbers after ± are expanded uncertainties.

The conditions of data set [1]: 298.15 K; 101.33 kPa; Liquid.
Data set [2] is described as follows: refractive index (Na D-line) (dimensionless). The following applies: 298.15 K; 101.33 kPa; Liquid; Standard Abbe refractometry.

Broadly, the mass density is mass per unit of volume. In general, refractive index refers to a measure of how strongly the sample bends light.

Consider `CCOS(=O)(=O)[O-].CCn1cc[n+](C)c1` [1-ethyl-3-methylimidazolium ethyl sulfate], for which the mass density in data set [1] is recorded as 1237.23 ± 1.8 kg/m3. Besides, in data set [2], the refractive index came to 1.4791 ± 0.0007.
For `c1ccccc1` [benzene] the same measures were 873.57 ± 0.17 kg/m3 and 1.49774 ± 0.00068.
Take `C1CCCCC1` [cyclohexane]: the mass density in data set [1] turned out to be 773.8 ± 0.25 kg/m3. Also, the refractive index in data set [2] is on record as 1.4236 ± 0.00068.
In the case of `C1CCCCCCC1` [cyclooctane], the mass density in data set [1] came to 831.47 ± 0.73 kg/m3. The refractive index in data set [2] was found to be 1.45598 ± 0.0007.
Regarding `CC1CCCCC1` [methylcyclohexane], the mass density in data set [1] is listed as 765.02 ± 0.25 kg/m3. Also, the refractive index in data set [2] is given as 1.42062 ± 0.00068.
